Structures can show the parent of a compound that is named as a salt.
Molecular target: T1, human V1a receptor (Homo sapiens, UniProt P37288)
T1 construct: expressed in transfected cells; host or cells: HEK293 cells, transiently transfected; cell membranes
Test: human V1a receptor binding (3H-Vasopressin SPA, HEK293 membranes)
Conditions: displacement of 4 nM 3H-Vasopressin, membranes of HEK293 cells transiently transfected with human V1a receptor; Ki from IC50 by Cheng-Prussoff
In short: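 Ki derived by Cheng-Prusoff from IC50 curves normalised to specific binding. Serially diluted compounds (in 2% DMSO) competed with 3H-vasopressin (4 nM working solution) for 1 h at room temperature on SPA beads bearing membranes of transiently transfected HEK293 cells; unlabelled vasopressin defined non-specific counts.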

T1 sequence (P37288 whole entry): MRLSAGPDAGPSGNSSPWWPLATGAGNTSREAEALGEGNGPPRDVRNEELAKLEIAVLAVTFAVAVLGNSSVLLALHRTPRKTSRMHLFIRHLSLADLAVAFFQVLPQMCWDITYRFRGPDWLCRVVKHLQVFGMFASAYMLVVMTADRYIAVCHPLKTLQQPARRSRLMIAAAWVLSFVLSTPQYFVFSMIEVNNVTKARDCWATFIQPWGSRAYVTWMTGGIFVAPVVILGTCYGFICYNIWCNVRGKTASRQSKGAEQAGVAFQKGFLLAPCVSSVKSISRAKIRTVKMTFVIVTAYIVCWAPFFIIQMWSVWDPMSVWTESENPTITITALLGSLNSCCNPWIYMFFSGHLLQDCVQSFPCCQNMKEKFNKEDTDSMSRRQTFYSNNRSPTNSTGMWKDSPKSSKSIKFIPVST

In the case of O=C(c1cn(CCCN2CCOCC2)c2cc(Cl)ccc12)N1CCC2(CC1)OCc1ccccc12 [Example 257, 1′-{[6-Chloro-1-(3-morpholin-4-ylpropyl)-1H-indol-3-yl]carbonyl}-3H-spiro[2-benzofuran-1,4′-piperidine]], the Ki is reported as 3.1 nM.
In the case of O=C(c1cn(CC2CO2)c2cc(Cl)ccc12)N1CCC2(CC1)OCc1ccccc12 (stereo not drawn) [Example 258, 1′-{[6-Chloro-1-(oxiran-2-ylmethyl)-1H-indol-3-yl]carbonyl}-3H-spiro[2-benzofuran-1,4′-piperidine]], the Ki is reported as 3.7 nM.
Work on O=C(c1cn(CCO)c2cc(Cl)ccc12)N1CCC2(CC1)OCc1ccccc12 [Example 259, 2-[6-Chloro-3-(1′H,3H-spiro[2-benzofuran-1,4′-piperidin]-1′-ylcarbonyl)-1H-indol-1-yl]ethanol] yielded a Ki of 2.6 nM.
Cc1cc(Cn2cc(C(=O)N3CCC4(CC3)OCc3ccccc34)c3ccc(Cl)cc32)ccn1 [Example 260, 1′-({6-Chloro-1-[(2-methylpyridin-4-yl)methyl]-1H-indol-3-yl}carbonyl)-3H-spiro[2-benzofuran-1,4′-piperidine]] gave a Ki of 2.8 nM.
Work on O=C(c1cn(C[C@H]2CCCNC2)c2cc(Cl)ccc12)N1CCC2(CC1)OCc1ccccc12 [Example 261, 1′-({6-Chloro-1-[(3S)-piperidin-3-ylmethyl]-1H-indol-3-yl}carbonyl)-3H-spiro[2-benzofuran-1,4′-piperidine]] yielded a Ki of 1.7 nM.
O=C(c1cn(CCNO)c2cc(Cl)ccc12)N1CCC2(CC1)OCc1ccccc12 [Example 262, 2-[6-Chloro-3-(1′H,3H-spiro[2-benzofuran-1,4′-piperidin]-1′-ylcarbonyl)-1H-indol-1-yl]-N-hydroxyethanamine] showed a Ki of 4.3 nM.
O=C(c1cn(CC2CCOCC2)c2cc(Cl)ccc12)N1CCC2(CC1)OCc1ccccc12 [Example 263, 1′-{[6-Chloro-1-(tetrahydro-2H-pyran-4-ylmethyl)-1H-indol-3-yl]carbonyl}-3H-spiro[2-benzofuran-1,4′-piperidine]] gave a Ki of 1.7 nM.
CN1CCC(Cn2cc(C(=O)N3CCC4(CC3)OCc3ccccc34)c3ccc(Cl)cc32)C1 (stereo not drawn) [Example 264, 1′-({6-Chloro-1-[(1-methylpyrrolidin-3-yl)methyl]-1H-indol-3-yl}carbonyl)-3H-spiro[2-benzofuran-1,4′-piperidine]] was tested, and the Ki was 1.8 nM.
Compound CN1CCC[C@H](Cn2cc(C(=O)N3CCC4(CC3)OCc3ccccc34)c3ccc(Cl)cc32)C1 [Example 265, 1′-[(6-Chloro-1-{[(3S)-1-methylpiperidin-3-yl]methyl}-1H-indol-3-yl)carbonyl]-3H-spiro[2-benzofuran-1,4′-piperidine]] has a Ki of 1.4 nM.
O=C(c1cn(CC2CCNC2)c2cc(Cl)ccc12)N1CCC2(CC1)OCc1ccccc12 (stereo not drawn) [Example 266, 1′-{[6-Chloro-1-(pyrrolidin-3-ylmethyl)-1H-indol-3-yl]carbonyl}-3H-spiro[2-benzofuran-1,4′-piperidine]] showed a Ki of 2.7 nM.
Work on CN1CCC[C@H]1Cn1cc(C(=O)N2CCC3(CC2)OCc2ccccc23)c2ccc(Cl)cc21 [Example 268] yielded a Ki of 0.07 nM.
In the case of CN1CCC[C@@H]1Cn1cc(C(=O)N2CCC3(CC2)OCc2ccccc23)c2ccc(Cl)cc21 [Example 269], the Ki is reported as 1 nM.
In the case of CC(=O)NCCn1cc(C(=O)N2CCC3(CC2)OCc2ccccc23)c2ccc(Cl)cc21 [Example 270, N-{2-[6-Chloro-3-(1′H,3H-spiro[2-benzofuran-1,4′-piperidin]-1′-ylcarbonyl)-1H-indol-1-yl]ethyl}acetamide], the Ki is reported as 1.3 nM.
CS(=O)(=O)NCCn1cc(C(=O)N2CCC3(CC2)OCc2ccccc23)c2ccc(Cl)cc21 [Example 271, N-{2-[6-Chloro-3-(1′H,3H-spiro[2-benzofuran-1,4′-piperidin]-1′-ylcarbonyl)-1H-indol-1-yl]ethyl}methanesulfonamide] showed a Ki of 1.5 nM.
CC(=O)N(C)CCn1cc(C(=O)N2CCC3(CC2)OCc2ccccc23)c2ccc(Cl)cc21 [Example 272, N-{2-[6-Chloro-3-(1′H,3H-spiro[2-benzofuran-1,4′-piperidin]-1′-ylcarbonyl)-1H-indol-1-yl]ethyl}-N-methylacetamide] showed a Ki of 1.3 nM.
For CN(CCn1cc(C(=O)N2CCC3(CC2)OCc2ccccc23)c2ccc(Cl)cc21)S(C)(=O)=O [Example 273, N-{2-[6-Chloro-3-(1′H,3H-spiro[2-benzofuran-1,4′-piperidin]-1′-ylcarbonyl)-1H-indol-1-yl]ethyl}-N-methylmethanesulfonamide], the Ki was 1.1 nM.
Work on CC(C)(C)OC(=O)N1CCn2c(c(C(=O)N3CCC4(CC3)OCc3ccccc34)c3ccccc32)C1 [Example 274, tert-Butyl 10-(1′H,3H-spiro[2-benzofuran-1,4′-piperidin]-1′-ylcarbonyl)-3,4-dihydropyrazino[1,2-a]indole-2(1H)-carboxylate] yielded a Ki of 25.1 nM.
O=C(c1c2n(c3ccccc13)CCNC2)N1CCC2(CC1)OCc1ccccc12 [Example 275, 1′-(1,2,3,4-Tetrahydropyrazino[1,2-a]indol-10-ylcarbonyl)-3H-spiro[2-benzofuran-1,4′-piperidine]hydrochloride] gave a Ki of 15.7 nM.
In the case of CN1CCn2c(c(C(=O)N3CCC4(CC3)OCc3ccccc34)c3ccccc32)C1 [Example 276, 1′-[(2-Methyl-1,2,3,4-tetrahydropyrazino[1,2-a]indol-10-yl)carbonyl]-3H-spiro[2-benzofuran-1,4′-piperidine]], the Ki is reported as 12 nM.
Cc1[nH]c2cc(Cl)ccc2c1C(=O)N1CCC2(CC1)OCc1ccccc12 [Example 277, 1′-[(6-Chloro-2-methyl-1H-indol-3-yl)carbonyl]-3H-spiro[2-benzofuran-1,4′-piperidine]] showed a Ki of 5.2 nM.
For O=C(c1c[nH]c2cc(Cl)ccc12)N1CCC2(CC1)C(=O)Nc1ccc(Br)cc12 [Example 280, 5-Bromo-1′-[(6-chloro-1H-indol-3-yl)carbonyl]spiro[indole-3,4′-piperidin]-2(1H)-one], the Ki was 67.6 nM.
For Cc1c(C(=O)N2C[C@@H](C)[C@]3(OC(=O)c4ccccc43)[C@@H](C)C2)c2ccccc2n1Cc1ccccc1 [Example 281, (1R,3′R,5′S)-1′-[(1-Benzyl-2-methyl-1H-indol-3-yl)carbonyl]-3′,5′-dimethyl-3H-spiro[2-benzofuran-1,4′-piperidin]-3-one], the Ki was 19.1 nM.
For CNC(=O)Cn1cc(C(=O)N2CCC3(CC2)NC(=O)c2ccccc23)c2ccc(Cl)cc21 [Example 283, 2-{6-Chloro-3-[(3-oxo-2,3-dihydro-1′H-spiro[isoindole-1,4′-piperidin]-1′-yl)carbonyl]-1H-indol-1-yl}-N-methylacetamide], the Ki was 63.1 nM.
Work on O=C(c1c[nH]c2cc(Cl)ccc12)N1CCC2(CC1)NCc1ccccc12 [Example 284, 1′-[(6-Chloro-1H-indol-3-yl)carbonyl]-2,3-dihydrospiro[isoindole-1,4′-piperidine]] yielded a Ki of 138 nM.

Reference: patent US7332501B2, “Indol-3-yl-carbonyl-spiro-piperidine derivatives as V1a receptor antagonists” (Hoffmann-La Roche Inc., priority 2005, dated 2008)
